Experimental data: ChEMBL document CHEMBL3045606, “Virtual screening and biochemical evaluation of the inhibitors of dual-specificity phosphatase 26” (Med Chem Res, 2013)

How the values were obtained:
[1] = molecular target: T1, Dual specificity protein phosphatase 26 (Homo sapiens, UniProt Q9BV47); assay: inhibition of Homo sapiens (human) recombinant DUSP26 catalytic domain (61 to 211 amino acid residues) overexpressed in Escherichia coli BL21 (DE3) assessed as hydrolysis of 3-ortho-methylfluorescein phosphate after 30 min by spectrofluorometric analysis
T1 sequence (Q9BV47 whole entry): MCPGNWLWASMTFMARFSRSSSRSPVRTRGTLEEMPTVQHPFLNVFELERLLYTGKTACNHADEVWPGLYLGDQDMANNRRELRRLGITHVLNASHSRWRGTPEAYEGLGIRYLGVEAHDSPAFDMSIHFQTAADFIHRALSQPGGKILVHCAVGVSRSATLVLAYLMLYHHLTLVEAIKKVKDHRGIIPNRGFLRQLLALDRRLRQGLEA

[2] = molecular target: T1, Dual specificity protein phosphatase 26; assay: Inhibition of DUSP26 (unknown origin)-mediated p38 dephosphorylation

SMILES	IC50 [1]	IC50 [2]
CCc1cc(CC)cc(OCCOc2ccccc2/C=C2/C(=O)NN(c3ccccc3)C2=O)c1	36.6 µM	
O=S(=O)(O)c1ccc2cc(/N=N/c3cc(S(=O)(=O)O)c4cccnc4c3O)ccc2c1		16.7 µM
CN1C(=O)/C(=C/c2ccc(OCc3cccc([N+](=O)[O-])c3)cc2)S/C1=N/c1cccc(C(=O)O)c1	19.8 µM	
C=CCOc1ccc(/C=C2\SC(=S)N(c3cccc(C(=O)O)c3)C2=O)cc1	30.2 µM	
CN1C(=O)/C(=C/c2ccc(OCc3cccc(F)c3)cc2)S/C1=N/c1cccc(C(=O)O)c1	12.5 µM	
CCN1C(=O)/C(=C/c2ccccc2OCc2ccccc2C#N)S/C1=N/c1ccc(C(=O)O)cc1	41.7 µM	
O=C(CN1C(=O)/C(=C\C=C\c2ccccc2)SC1=S)Nc1ccc(O)cc1C(=O)O	26.3 µM	
O=C1OC(c2ccc(Cl)cc2)=C/C1=C\c1ccc(-c2cccc(C(=O)O)c2)o1	> 100 µM	
Cc1ccc(C2=C/C(=C\c3ccc(-c4cccc(C(=O)O)c4)o3)C(=O)O2)cc1	> 100 µM	
O=C1OC(c2ccc(Cl)cc2)=C/C1=C\c1ccc(-c2ccc(Cl)c(C(=O)O)c2)o1	8.9 µM	
O=C(O)CCN1C(=O)/C(=C/c2cn(-c3ccccc3)nc2-c2cccc([N+](=O)[O-])c2)SC1=S	22.3 µM	
CN1C(=O)/C(=C/c2ccc(OCc3ccc(F)cc3)cc2)S/C1=N/c1cccc(C(=O)O)c1	26.9 µM	
O=C(O)c1cccc(N2C(=O)/C(=C\c3ccc(O)c(O)c3)SC2=S)c1	25.1 µM	
O=C(O)c1ccc(Cl)cc1Nc1nc2ccccc2nc1NS(=O)(=O)c1ccc(Cl)cc1	17 µM	
